Source: patent publication US8999969B2, “Anti-RSV compounds” (Gilead Sciences, Inc., priority 2009, dated 2015)

system: RSV strain A2; test: in vitro cytoprotection assay against RSV in Hep2 cells; assay type: cell-based; details: human respiratory syncytial virus, HEp-2, 96 h; 1 uM compound; RSV-induced cytopathic effect in Hep2 cells, 4 days, Cell TiterGlo; read-out: RSV % inh. @ 1 uM
Method: Antiviral activity against RSV was determined using an in vitro cytoprotection assay in Hep2 cells. […] The method used is similar to methods previously described in Chapman J et al., “RSV604 a novel inhibitor of respiratory syncytial virus replication,” Antimicrob Agents Chemother, 51(9):3346-53 (2007).
Hep2 cells were obtained from ATCC (Manassas, Va.) and maintained in MEM media supplemented with 10% fetal bovine serum and penicillin/streptomycin. Cells were passaged twice a week and kept at subconfluent stage. Commercial stock of RSV strain A2 (Advanced Biotechnologies, Columbia, Md.) was titered before compound testing to determine the appropriate dilution of the virus stock that generates desirable cytopathic effect in Hep2 cells.
For antiviral tests, Hep2 cells were seeded into 96-well plates 24 hours before the assay at a density of 3,000 cells/well. On a separate 96well plate, tested compounds were serially diluted in cell culture media. Eight concentrations in 3-fold serial dilution increments were prepared for each tested compound and 100 uL/well of each dilution was transferred in duplicate onto plates with seeded Hep2 cells. Subsequently, appropriate dilution of virus stock previously determined by titration was prepared in cell culture media and 100 uL/well was added to test plates containing cells and serially diluted compounds. Each plate included three wells of infected untreated cells and three wells of uninfected cells that served as 0% and 100% virus inhibition control, respectively. Following the infection with RSV, testing plates were incubated for 4 days in a tissue culture incubator. After the incubation, RSV-induced cytopathic effect was determined using a Cell TiterGlo reagent (Promega, Madison, Wis.) followed by a luminescence read-out. The percentage inhibition was calculated for each tested concentration relative to the 0% and 100% inhibition controls and the EC50 value for each compound was determined by non-linear regression as a concentration inhibiting the RSV-induced cytopathic effect by 50%. Ribavirin (purchased from Sigma, St. Louis, Mo.) was used as a positive control for antiviral activity.

Question: How did the inhibition at 1 µM turn out when O=C(NC1CC1)c1cc2c(s1)-c1ccccc1N(C(=O)c1ccc(NC(=O)c3cccnc3Br)cc1)CC2 [Example 1] was run?
Answer: 76%

Question: With O=C(NC1CC1)c1cc2c(s1)-c1ccccc1N(C(=O)c1ccc(NC(=O)c3ccccc3I)cc1)CC2 [Example 2] as the molecule, how does the inhibition at 1 µM read?
Answer: 78%

Question: Which inhibition at 1 µM does the source give for O=C(NC1CC1)c1cc2c(s1)-c1ccccc1N(C(=O)c1ccc(NC(=O)c3ccccc3N3CCCC3)cc1)CC2 [Example 3] here?
Answer: 100%

Question: For O=C(NC1CC1)c1cc2c(s1)-c1ccccc1N(C(=O)c1ccc(NC(=O)c3ccncc3Br)cc1)CC2 [Example 4], which inhibition at 1 µM is on record?
Answer: 78%

Question: How did the inhibition at 1 µM turn out when O=C(NC1CC1)c1cc2c(s1)-c1ccccc1N(C(=O)c1ccc(NC(=O)c3ncccc3Br)cc1)CC2 [Example 5] was run?
Answer: 79%

Question: For C[C@@H]1CCCN1c1ncccc1C(=O)Nc1ccc(C(=O)N2CCc3cc(C(=O)NC4CC4)sc3-c3ccccc32)cc1 [Example 6], which inhibition at 1 µM is on record?
Answer: 100%

Question: With O=C(NC1CC1)c1cc2c(s1)-c1ccccc1N(C(=O)c1ccc(NC(=O)c3cccnc3N3CC(F)(F)C3)cc1)CC2 [Example 7] as the molecule, how does the inhibition at 1 µM read?
Answer: 100%

Question: O=C(NC1CC1)c1cc2c(s1)-c1ccccc1N(C(=O)c1ccc(NC(=O)c3ccccc3-c3ccc(F)cc3)cc1)CC2 [Example 8] was tested. Which inhibition at 1 µM did it give?
Answer: 100%

Question: With O=C(NC1CC1)c1cc2c(s1)-c1ccccc1N(C(=O)c1ccc(NC(=O)c3cccnc3N3CCC(F)(F)C3)cc1)CC2 [Example 9] as the molecule, how does the inhibition at 1 µM read?
Answer: 100%

Question: O=C(NC1CC1)c1cc2c(s1)-c1ccccc1N(C(=O)c1ccc(NC(=O)c3cccnc3N3CC4(COC4)C3)cc1)CC2 [Example 10] was tested. Which inhibition at 1 µM did it give?
Answer: 100%

Question: Which inhibition at 1 µM does the source give for O=C(NC1CC1)c1cc2c(s1)-c1ccccc1N(C(=O)c1ccc(NC(=O)c3ccccc3-c3cccs3)cc1)CC2 [Example 11] here?
Answer: 99%

Question: Which inhibition at 1 µM does the source give for O=C(NC1CC1)c1cc2c(s1)-c1ccccc1N(C(=O)c1ccc(NC(=O)c3ccncc3N3CCC3)cc1)CC2 [Example 12] here?
Answer: 97%

Question: How did the inhibition at 1 µM turn out when CC(C)c1ccccc1C(=O)Nc1ccc(C(=O)N2CCc3cc(C(=O)NC4CC4)sc3-c3ccccc32)cc1 [Example 13] was run?
Answer: 99%

Question: Which inhibition at 1 µM does the source give for O=C(NC1CC1)c1cc2c(s1)-c1ccccc1N(C(=O)c1ccc(NC(=O)c3cnccc3C(F)(F)F)cc1)CC2 [Example 14] here?
Answer: 100%

Question: How did the inhibition at 1 µM turn out when COc1ccc(C(=O)Nc2ccc(C(=O)N3CCc4cc(C(=O)NC5CC5)sc4-c4ccccc43)cc2)cc1 [Example 15] was run?
Answer: 97%

Question: Which inhibition at 1 µM does the source give for O=C(NC1CC1)c1cc2c(s1)-c1ccccc1N(C(=O)c1ccc(NC(=O)c3ccccc3Cc3ccccc3)cc1)CC2 [Example 17] here?
Answer: 100%

Question: For O=C(Nc1ccc(C(=O)N2CCc3cc(C(=O)NC4CC4)sc3-c3ccccc32)cc1)c1cc(N2CCC2)ccn1 [Example 18], which inhibition at 1 µM is on record?
Answer: 98%

Question: Which inhibition at 1 µM does the source give for O=C(NC1CC1)c1cc2c(s1)-c1ccccc1N(C(=O)c1ccc(NC(=O)c3cnccc3N3CCC3)cc1)CC2 [Example 19] here?
Answer: 100%

Question: With Cn1ccc2cccc(C(=O)Nc3ccc(C(=O)N4CCc5cc(C(=O)NC6CC6)sc5-c5ccccc54)cc3)c21 [Example 20] as the molecule, how does the inhibition at 1 µM read?
Answer: 99%

Question: O=C(Nc1ccc(C(=O)N2CCc3cc(C(=O)NC4CC4)sc3-c3ccccc32)cc1)c1ccnc(N2CCC2)c1 [Example 21] was tested. Which inhibition at 1 µM did it give?
Answer: 94%

Question: With Cc1ccsc1C(=O)Nc1ccc(C(=O)N2CCc3cc(C(=O)NC4CC4)sc3-c3ccccc32)cc1 [Example 22] as the molecule, how does the inhibition at 1 µM read?
Answer: 90%

Question: Cc1cc(C(=O)Nc2ccc(C(=O)N3CCc4cc(C(=O)NC5CC5)sc4-c4ccccc43)cc2)n(C(C)(C)C)n1 [Example 24] was tested. Which inhibition at 1 µM did it give?
Answer: 78%

Question: How did the inhibition at 1 µM turn out when O=C(NC1CC1)c1cc2c(s1)-c1ccccc1N(C(=O)c1ccc(NC(=O)c3cccc4nccnc34)cc1)CC2 [Example 25] was run?
Answer: 64%

Question: Which inhibition at 1 µM does the source give for O=C(NC1CC1)c1cc2c(s1)-c1ccccc1N(C(=O)c1ccc(NC(=O)c3cccnc3C(F)(F)F)cc1F)CC2 [Example 26] here?
Answer: 47%

Question: How did the inhibition at 1 µM turn out when Cn1nc(C(=O)Nc2ccc(C(=O)N3CCc4cc(C(=O)NC5CC5)sc4-c4ccccc43)cc2)c2ccccc21 [Example 27] was run?
Answer: 41%

Question: Which inhibition at 1 µM does the source give for Cc1ccccc1C(=O)N1CCC(C(=O)Nc2ccc(C(=O)N3CCc4cc(C(=O)NC5CC5)sc4-c4ccccc43)cc2)CC1 [Example 28] here?
Answer: 15%

Question: How did the inhibition at 1 µM turn out when Cn1nccc1C(=O)Nc1ccc(C(=O)N2CCc3cc(C(=O)NC4CC4)sc3-c3ccccc32)cc1 [Example 29] was run?
Answer: 22%

Question: With O=C(Nc1ccc(C(=O)N2CCc3cc(C(=O)NC4CC4)sc3-c3ccccc32)cc1)c1ccc(N2CCC2)nc1 [Example 31] as the molecule, how does the inhibition at 1 µM read?
Answer: 30%

Question: Which inhibition at 1 µM does the source give for O=C(NC1CC1)c1cc2c(s1)-c1ccccc1N(C(=O)c1ccc(NS(=O)(=O)c3ccccc3)cc1)CC2 [Example 34] here?
Answer: 90%

Question: O=C(NC1CC1)c1cc2c(s1)-c1ccccc1N(C(=O)c1ccc(NC(=O)c3cccnc3N3CCCC3)cc1)CC2 [Example 37] was tested. Which inhibition at 1 µM did it give?
Answer: 100%

Question: O=C(NC1CC1)c1cc2c(s1)-c1ccccc1N(C(=O)c1ccc(NC(=O)c3cccnc3N3CC[C@@H](F)C3)cc1)CC2 [Example 38] was tested. Which inhibition at 1 µM did it give?
Answer: 99%

Question: For O=C(NC1CC1)c1cc2c(s1)-c1ccccc1N(C(=O)c1ccc(NC(=O)c3cccnc3N3CC[C@H](F)C3)cc1)CC2 [Example 39], which inhibition at 1 µM is on record?
Answer: 94%

Question: Which inhibition at 1 µM does the source give for C[C@H]1CCCN1c1ncccc1C(=O)Nc1ccc(C(=O)N2CCc3cc(C(=O)NC4CC4)sc3-c3ccccc32)cc1 [Example 40] here?
Answer: 98%

Question: For O=C(NC1CC1)c1cc2c(s1)-c1ccccc1N(C(=O)c1ccc(NC(=O)c3cccnc3N3CCC[C@H]3C(F)(F)F)cc1)CC2 [Example 42], which inhibition at 1 µM is on record?
Answer: 99%

Question: How did the inhibition at 1 µM turn out when COC[C@@H]1CCCN1c1ncccc1C(=O)Nc1ccc(C(=O)N2CCc3cc(C(=O)NC4CC4)sc3-c3ccccc32)cc1 [Example 43] was run?
Answer: 99%

Question: How did the inhibition at 1 µM turn out when O=C(NC1CC1)c1cc2c(s1)-c1ccccc1N(C(=O)c1ccc(NC(=O)c3cccnc3N3CC[C@@H](O)C3)cc1)CC2 [Example 44] was run?
Answer: 77%

Question: Which inhibition at 1 µM does the source give for O=C(NC1CC1)c1cc2c(s1)-c1ccccc1N(C(=O)c1ccc(NC(=O)c3cccnc3N3CC(F)C3)cc1)CC2 [Example 45] here?
Answer: 100%

Question: Which inhibition at 1 µM does the source give for O=C(NC1CC1)c1cc2c(s1)-c1ccccc1N(C(=O)c1ccc(NC(=O)c3cccnc3N3CCC3)cc1)CC2 [Example 46] here?
Answer: 98%

Question: How did the inhibition at 1 µM turn out when COc1ccc(C(=O)Nc2ccc(C(=O)N3CCc4cc(C(=O)NC5CC5)sc4-c4ccccc43)cc2)c(C)c1 [Example 47] was run?
Answer: 100%

Question: For O=C(NCc1cccs1)c1cc2c(s1)-c1ccccc1N(C(=O)c1ccc(NC(=O)c3cccnc3N3CCCC3)cc1)CC2 [Example 48], which inhibition at 1 µM is on record?
Answer: 100%

Question: How did the inhibition at 1 µM turn out when O=C(Nc1ccc(C(=O)N2CCc3cc(C(=O)N4CCCC4)sc3-c3ccccc32)cc1)c1cccnc1N1CCCC1 [Example 49] was run?
Answer: 30%

Question: With O=C(NCc1ccccn1)c1cc2c(s1)-c1ccccc1N(C(=O)c1ccc(NC(=O)c3cccnc3N3CCCC3)cc1)CC2 [Example 50] as the molecule, how does the inhibition at 1 µM read?
Answer: 100%

Question: With C[C@H](NC(=O)c1cc2c(s1)-c1ccccc1N(C(=O)c1ccc(NC(=O)c3cccnc3N3CCCC3)cc1)CC2)C(N)=O [Example 51] as the molecule, how does the inhibition at 1 µM read?
Answer: 46%

Question: How did the inhibition at 1 µM turn out when O=C(NCc1nccs1)c1cc2c(s1)-c1ccccc1N(C(=O)c1ccc(NC(=O)c3cccnc3N3CCCC3)cc1)CC2 [Example 52] was run?
Answer: 100%

Question: For NS(=O)(=O)CCNC(=O)c1cc2c(s1)-c1ccccc1N(C(=O)c1ccc(NC(=O)c3cccnc3N3CCCC3)cc1)CC2 [Example 53], which inhibition at 1 µM is on record?
Answer: 1%

Question: How did the inhibition at 1 µM turn out when O=C(Nc1ccccn1)c1cc2c(s1)-c1ccccc1N(C(=O)c1ccc(NC(=O)c3cccnc3N3CCCC3)cc1)CC2 [Example 54] was run?
Answer: 99%

Question: Which inhibition at 1 µM does the source give for CN(C)C(=O)c1cc2c(s1)-c1ccccc1N(C(=O)c1ccc(NC(=O)c3cccnc3N3CCCC3)cc1)CC2 [Example 55] here?
Answer: 16%

Question: How did the inhibition at 1 µM turn out when CC(C)(CO)NC(=O)c1cc2c(s1)-c1ccccc1N(C(=O)c1ccc(NC(=O)c3cccnc3N3CCCC3)cc1)CC2 [Example 56] was run?
Answer: 93%

Question: How did the inhibition at 1 µM turn out when O=C(N[C@@H]1CCOC1)c1cc2c(s1)-c1ccccc1N(C(=O)c1ccc(NC(=O)c3cccnc3N3CCCC3)cc1)CC2 [Example 57] was run?
Answer: 95%

Question: For O=C(NCCF)c1cc2c(s1)-c1ccccc1N(C(=O)c1ccc(NC(=O)c3cccnc3N3CCCC3)cc1)CC2 [Example 58], which inhibition at 1 µM is on record?
Answer: 100%

Question: COC1CN(C(=O)c2cc3c(s2)-c2ccccc2N(C(=O)c2ccc(NC(=O)c4cccnc4N4CCCC4)cc2)CC3)C1 [Example 59] was tested. Which inhibition at 1 µM did it give?
Answer: 43%

Question: NC(=O)CCNC(=O)c1cc2c(s1)-c1ccccc1N(C(=O)c1ccc(NC(=O)c3cccnc3N3CCCC3)cc1)CC2 [Example 60] was tested. Which inhibition at 1 µM did it give?
Answer: 35%

Question: How did the inhibition at 1 µM turn out when NC(=O)c1cc2c(s1)-c1ccccc1N(C(=O)c1ccc(NC(=O)c3cccnc3N3CCCC3)cc1)CC2 [Example 61] was run?
Answer: 84%

Question: With Cn1ccnc1CNC(=O)c1cc2c(s1)-c1ccccc1N(C(=O)c1ccc(NC(=O)c3cccnc3N3CCCC3)cc1)CC2 [Example 62] as the molecule, how does the inhibition at 1 µM read?
Answer: 90%

Question: Which inhibition at 1 µM does the source give for O=C(NC1CC1)c1cc2c(s1)-c1ccccc1N(C(=O)c1ccc(NC(=O)c3ccncc3N3CC(F)C3)cc1)CC2 [Example 63] here?
Answer: 99%

Question: How did the inhibition at 1 µM turn out when O=C(NC1CC1)c1cc2c(s1)-c1ccccc1N(C(=O)c1ccc(NC(=O)c3cccnc3N3CC(F)(F)C3)c(F)c1)CC2 [Example 64] was run?
Answer: 99%
